# In patent US20250290142A1, “DETECTING OXIDATIVE STRESS IN CELL(S) USING EPIGENETIC MEANS” (Evonik Operations GmbH, priority 2022, published 2025):
# System: T-Skin models (reconstructed human skin)
# Settings: maintained 24 hrs
# Experimental: T-Skin models were obtained from Episkin SA, France which is composed of reconstructed human skin. Each skin model consists of a dermal equivalent overlaid by a stratified, well-differentiated epidermis derived from normal human keratinocytes. Upon receiving the skin models, it was recovered by incubating in T-Skin culture medium overnight at 37° C. in a 5% CO2 incubator.
# The genomic DNA (500 ng) from tissue samples were subjected to bisulfite conversion using the EZ DNA Methylation-Gold™ Kit (Zymo Research). The methylation levels were quantified using Infinium MethylationEPIC v2.0 Kit (Illumina) which can analyze over 850,000 methylation sites quantitatively across the genome at single-nucleotide resolution.
# Quality check on samples was performed to keep probes that have a detection P-value <0.01 in one or more samples or have a mean detection P-value <0.05 in all samples. […]
# Prior to differential methylation analysis, the probes with non-specific binding, cross reactive probes, probes affected by common SNPs, and probes annotated to the X, Y chromosomes were also filtered out. Beta-value and M-value of normalized and filtered samples were calculated using getBeta and getM function respectively, the samples were then subjected to further downstream analysis. […]
structure (smiles),measurement,setting,value
"OO [H2O2, Hydrogen peroxide]",methylation status of probes vs cells without OS (FIG. 4A),high H2O2 (200 μM) for 2 hrs,large number of probes that are hypomethylated
same,methylation status of probes vs cells without OS (FIG. 3A),low H2O2 (100 μM) for 2 hrs,large number of probes that are hypomethylated
